± gives the expanded uncertainty stated by the source.
Key:
[1] = refractive index (Na D-line) (dimensionless); details: 101.33 kPa, Liquid, Standard Abbe refractometry
[2] = for surface tension liquid-gas: Maximal bubble pressure; for mass density: 101.33 kPa, Liquid, Vibrating tube method

| SMILES | refractive index ([1]; 303.15 K) | refractive index ([1]; 308.15 K) | refractive index ([1]; 313.15 K) | refractive index ([1]; 318.15 K) | refractive index ([1]; 323.15 K) | refractive index ([1]; 328.15 K) | refractive index ([1]; 333.15 K) | refractive index ([1]; 338.15 K) | surface tension liquid-gas ([2]; 303.15 K) [mN/m] | mass density ([2]; 303.15 K) [kg/m3] | surface tension liquid-gas ([2]; 308.15 K) [mN/m] | mass density ([2]; 308.15 K) [kg/m3] | surface tension liquid-gas ([2]; 313.15 K) [mN/m] | mass density ([2]; 313.15 K) [kg/m3] | surface tension liquid-gas ([2]; 318.15 K) [mN/m] | mass density ([2]; 318.15 K) [kg/m3] | surface tension liquid-gas ([2]; 323.15 K) [mN/m] | mass density ([2]; 323.15 K) [kg/m3] | surface tension liquid-gas ([2]; 328.15 K) [mN/m] | mass density ([2]; 328.15 K) [kg/m3] | further results |
| --- | --- | --- | --- | --- | --- | --- | --- | --- | --- | --- | --- | --- | --- | --- | --- | --- | --- | --- | --- | --- | --- |
| CCCC[n+]1ccccc1.N#C[N-]C#N [1-butylpyridinium dicyanamide] | 1.5325 ± 0.003 | 1.5309 ± 0.003 | 1.5285 ± 0.003 | 1.527 ± 0.003 | 1.5253 ± 0.003 | 1.5237 ± 0.003 | 1.5217 ± 0.003 | 1.5202 ± 0.003 | 55.5 ± 0.5 | 1065.76 ± 2 | 55.2 ± 0.5 | 1062.7 ± 2 | 54.9 ± 0.5 | 1059.66 ± 2 | 54.5 ± 0.5 | 1056.64 ± 2 | 54.2 ± 0.5 | 1053.63 ± 2 | 53.9 ± 0.5 | 1050.63 ± 2 | surface tension liquid-gas ([2]; 333.15 K): 53.6 ± 0.5 mN/m; mass density ([2]; 333.15 K): 1047.66 ± 2 kg/m3; surface tension liquid-gas ([2]; 338.15 K): 53.4 ± 0.5 mN/m; mass density ([2]; 338.15 K): 1044.69 ± 2 kg/m3 |
| CCCCC[n+]1ccccc1.N#C[N-]C#N [1-pentylpyridinium dicyanamide] | 1.5287 ± 0.003 | 1.5272 ± 0.003 | 1.5258 ± 0.003 | 1.5243 ± 0.003 | 1.523 ± 0.003 | 1.5212 ± 0.003 | 1.5194 ± 0.003 | 1.5179 ± 0.003 | 53 ± 0.5 | 1050.05 ± 2 | 52.7 ± 0.5 | 1047.03 ± 2 | 52.4 ± 0.5 | 1044.03 ± 2 | 52.1 ± 0.5 | 1041.04 ± 2 | 51.7 ± 0.5 | 1038.07 ± 2 | 51.4 ± 0.5 | 1035.11 ± 2 | surface tension liquid-gas ([2]; 333.15 K): 51.2 ± 0.5 mN/m; mass density ([2]; 333.15 K): 1032.17 ± 2 kg/m3; surface tension liquid-gas ([2]; 338.15 K): 51 ± 0.5 mN/m; mass density ([2]; 338.15 K): 1029.24 ± 2 kg/m3 |
| CCC[n+]1ccccc1.N#C[N-]C#N [1-propylpyridinium dicyanamide] | 1.539 ± 0.006 | 1.5374 ± 0.006 | 1.5356 ± 0.006 | 1.5342 ± 0.006 | 1.5329 ± 0.006 | 1.5312 ± 0.006 | 1.5293 ± 0.006 | 1.5276 ± 0.006 | 57.7 ± 0.8 | 1086.92 ± 4.1 | 57.4 ± 0.8 | 1083.79 ± 4.1 | 57 ± 0.8 | 1080.69 ± 4.1 | 56.7 ± 0.8 | 1077.6 ± 4.1 | 56.4 ± 0.8 | 1074.52 ± 4.1 | 56.1 ± 0.8 | 1071.46 ± 4.1 | surface tension liquid-gas ([2]; 333.15 K): 55.7 ± 0.8 mN/m; mass density ([2]; 333.15 K): 1068.42 ± 4.1 kg/m3; surface tension liquid-gas ([2]; 338.15 K): 55.4 ± 0.8 mN/m; mass density ([2]; 338.15 K): 1065.4 ± 4.1 kg/m3 |

Reference: the NIST ThermoML archive (doi:10.1016/j.jct.2015.11.023)
